Drawing on patent US6949553B2, “Aliphatic compounds, their synthesis method, and utilization of the same” (Maruha Corporation, priority 2001, dated 2005), this text covers IC50 and Survival rate for one molecule.

SMILES strings stand for the structures. Read-outs that look alike come from different tables or passages of the source.

For test [1], the system named is platelets. The test can be described thus: Collagen-induced in vitro platelet aggregation (rabbit PRP, transmittance). Format: cell-based. Particulars: Oryctolagus cuniculus, Platelet, read-out: 50% Inhibition Point for Platelet Aggregation, IC50. On the procedure:
Collagen-induced in vitro Platelet Aggregation
It was studied whether the compounds of the present invention would inhibit platelet aggregation induced by collagen.
These compounds were each diluted with physiological saline to end concentrations of 1×10^−7M, 3×10^−7M, 1×10^−6M, 3×10^−6M, 1×10^−5M, 3×10^−5M and 1×10^−4M.
Indomethacin was used as a positive control. Indomethacin was dissolved in methanol, and then diluted with physiological saline to end concentrations of 1×10^−6M, 3×10^−6M and 1×10^−5M.
Physiological saline was used as a negative control.
The tube was centrifuged at 900 rpm for 10 minutes at room temperature to separate the supernatant (PRP, platelet rich plasma fraction). The residue was further centrifuged for 15 minutes at 2,500 rpm to obtain the supernatant (PPP, platelet poor plasma fraction).
PPP (platelet poor plasma fraction) was placed in a cuvette, and the cuvette was mounted in a 37° C. incubator for PPP of an aggregometer (Hematracer 240 12ch, manufactured by MCM). Then, 200 μl of PRP (platelet rich plasma fraction) was added into a cuvette, and the cuvette was mounted in a reactor for PRP. With stirring by a magnetic stirrer, the transmittance of PPP was corrected to T650 nm=100%, and the transmittance of PRP was corrected to T650 nm=0%, by automatic adjustment for 30 seconds.
The study substance (20 μl) at a predetermined concentration was added into the cuvette and, 30 seconds later, 20 μl (end concentration 0.2 μg/ml) of collagen (produced by MCM) was added. Subsequent changes in the transmittance were recorded for 5 minutes. When the platelets are aggregated, the transmittance increases. When aggregation peaked, the transmittance T at maximum aggregation was compared with the transmittance T0 of the negative control, and the aggregation inhibition rate was expressed as percentage using the following equation: Aggregation inhibition rate=(1−T/T0)×100
From an aggregation inhibition curve obtained, a regression equation was derived by approximation of the linear type.

In another test the test system is mice. The test can be described thus: Collagen-induced mouse sudden death model. Particulars: 30 μg/kg intravenous 1 hour before 37.5 mg/kg collagen; survival one hour later. It counts as in vivo. On the procedure: As a preliminary study of the effect of the compounds of the present invention on an in vivo pathophysiological model, it was investigated whether the compound of the present invention would suppress collagen-induced mouse sudden death. In this model, pulmonary capillaries are obstructed by a large amount of collagen, and a sudden death is caused by oxygen deficiency.
One hour after a solvent (physiological saline) or 30 μg/kg of Compound 2 was intravenously administered to mice, 37.5 mg/kg of collagen was administered to the caudal vein. One hour later, the survival rate was compared between the groups.

The subject of test [2] is platelets. The test can be described thus: In vitro platelet aggregation by various inducers, guinea pig platelets. It counts as cell-based. The settings on record: Cavia porcellus. The text has this:
Next, the suppression of platelet aggregation by the compounds of the present invention was studied in the same manner as described above with the use of not only collagen, but also arachidonic acid, ADP, thrombin, serotonin, epinephrine and U46619 (pseudo-thromboxane A2 substance) as inducers.
As platelets, platelets prepared from rats and guinea pigs as well as rabbits were also used.
Collagen and ADP were purchased from MCM, and used in accordance with the method of preparation described in the manuals attached to the purchased products. Serotonin, epinephrine and thrombin were purchased from Sigma, and used as solutions in physiological saline for injection (Otsuka Pharmaceutical Factory). Arachidonic acid was purchased from Cayman, and dispersed in physiological saline for injection (Otsuka Pharmaceutical Factory) with the use of an immersion type ultrasonic oscillator (US150, NIPPON SEIKI, tip end diameter ca. 3.5 mm). U46619 (pseudo-thromboxane substance) was purchased from FUNAKOSHI, and dissolved in physiological saline for injection (Otsuka Pharmaceutical Factory) when used.
Collagen (0.1 to 1 μg/ml), arachidonic acid (1 mM), ADP (1 μM), thrombin (1 U/ml), serotonin (100 μM), epinephrine (100 to 200 μM), and U46619 (3 μM) were used.
Indomethacin was used as a positive control for measuring the suppression of platelet aggregation induced by collagen.

The test system of another test is human platelets. The experiment in a line: Human in vitro platelet aggregation. Format: cell-based. Particulars: read-out: 50% inhibition point, IC50, against human in vitro platelet aggregation. The method, then: From each of the large brachial veins of human volunteers, 10 ml of blood per person was drawn using an 18G syringe needle. The blood was gently dropped into a 15 ml Falcon tube containing 1 ml of 3.8% sodium citrate (Citral, Yamanouchi Pharmaceutical). A stopper for the tube was closed, and slowly inverted for mixing. Then, the blood was centrifuged at 900 rpm for 10 minutes at room temperature to separate the supernatant (platelet rich fraction, platelet rich plasma, PRP). The residue was further centrifuged for 15 minutes at 2,500 rpm to obtain the supernatant (platelet poor fraction, platelet poor plasma, PPP). The platelet density of PRP was measured with a blood cell counter (Sysmex), and diluted with PPP to adjust the platelet density to 300,000 platelets/μl.
Preparation of aggregation inducers was performed in the same manner as described earlier.
For each experiment, the doses of the inducers were so set as to obtain best evaluation of the action of the study substance. That is, the concentration of each inducer at which aggregation would clearly develop in the presence of a negative control (physiological saline) but would not excessive was set for each experiment.
If aggregation is induced by high concentration ADP or high concentration epinephrine, on the other hand, primary aggregation takes place, and then secondary aggregation proceeds again, under the action, as a trigger, of alpha granules (PDGF, serotonin, ADP, etc.) liberated from activated platelets. In the present study, the effect of the study substance on secondary aggregation due to ADP or epinephrine was also investigated.
Serotonin, when used alone, minimally causes platelet aggregation. Thus, a combination of serotonin and collagen, or a combination of serotonin and ADP was used as the inducer. […] For example, if serotonin used alone induced aggregation at a dose of 1 mM, but induced little aggregation at a dose of 0.5 mM, and if ADP alone induced aggregation at a dose of 0.25 mM, but induced no aggregation at a dose of 0.11 mM, then the doses, 0.25 mM serotonin+0.05 mM ADP, were set.
Compound 2 was used as the study substance, and the preparation of the inducers was performed in the same manner as described earlier.
The measurement of the transmittance was carried out in the same manner as described earlier.

Take `CC/C=C\C/C=C\C/C=C\C/C=C\C/C=C\C/C=C\CCC(=O)NCCC1CCCN1C` (racemic) [Compound 2, (4Z,7Z,10Z,13Z,16Z,19Z)-N-[2-(1-methylpyrrolidin-2-yl)ethyl]docosahexaenoamide]: the IC50 is 1.5 µM in the test on platelets [1]; roughly 9 µM in the test on platelets [2] (read-out: 50% aggregation inhibition point, collagen-induced aggregation, guinea pig platelets); 65 ± 19 µM in the test with platelets [2] (read-out: 50% inhibition point, IC50, for in vitro platelet aggregation, inducer ADP (1 μM), guinea pig platelets); 9 ± 6 µM with platelets [2] (read-out: 50% inhibition point, IC50, for in vitro platelet aggregation, inducer collagen (0.1 to 1 μg/ml), guinea pig platelets); greater than 100 µM in the test on platelets [2] (read-out: 50% inhibition point, IC50, for in vitro platelet aggregation, inducer thrombin (1 U/ml), guinea pig platelets); 30 µM in the test on human platelets (inducer ADP (0.5˜1) μM, primary aggregation). Besides, the IC50 in the test with human platelets (inducer ADP (1˜2.5) μM, secondary aggregation) worked out at 0.57 µM; with human platelets (inducer Arachidonic acid (1˜2) μM), 80 µM; in the test with human platelets (inducer Collagen (0.075˜0.25) μg/ml), 13 µM; in the test on human platelets (inducer Epinephrine 1 μM, primary aggregation) it was 33 µM; in the test with human platelets (inducer Epinephrine (1˜3) μM, secondary aggregation), 2.7 µM; in the test on human platelets (inducer Serotonin + Collagen, (0.25˜0.5) μM + (0.05˜0.2) μg/ml), 15 µM. Besides, the figures for the IC50 in the test on human platelets (inducer Thrombin (0.2˜0.25) U/ml) and in the test on human platelets (inducer U46619 (pseudo-thromboxane A2) (5˜10) μM) were 57 µM and 53 µM, respectively. For the same molecule, the Survival rate in the test on mice was 7/10.
